One assay concerns the target HDAC5 (Homo sapiens, UniProt Q9UQL6). As to the kind of experiment: HDAC isoform selectivity, HDAC5. Format: biochemical. The following applies: HDAC subtype panel.
Another assay deals with HDAC4 (Homo sapiens, UniProt P56524). In words: HDAC isoform selectivity, HDAC4. The following applies: HDAC subtype panel. The class given is biochemical.
A further assay concerns the target HDAC9 (Homo sapiens, UniProt Q9UKV0). As to the kind of experiment: HDAC isoform selectivity, HDAC9. Format: biochemical. The following applies: HDAC subtype panel.
Another assay deals with T1, HDAC7 (Homo sapiens, UniProt Q8WUI4).
T1 sequence (Q8WUI4 1-952): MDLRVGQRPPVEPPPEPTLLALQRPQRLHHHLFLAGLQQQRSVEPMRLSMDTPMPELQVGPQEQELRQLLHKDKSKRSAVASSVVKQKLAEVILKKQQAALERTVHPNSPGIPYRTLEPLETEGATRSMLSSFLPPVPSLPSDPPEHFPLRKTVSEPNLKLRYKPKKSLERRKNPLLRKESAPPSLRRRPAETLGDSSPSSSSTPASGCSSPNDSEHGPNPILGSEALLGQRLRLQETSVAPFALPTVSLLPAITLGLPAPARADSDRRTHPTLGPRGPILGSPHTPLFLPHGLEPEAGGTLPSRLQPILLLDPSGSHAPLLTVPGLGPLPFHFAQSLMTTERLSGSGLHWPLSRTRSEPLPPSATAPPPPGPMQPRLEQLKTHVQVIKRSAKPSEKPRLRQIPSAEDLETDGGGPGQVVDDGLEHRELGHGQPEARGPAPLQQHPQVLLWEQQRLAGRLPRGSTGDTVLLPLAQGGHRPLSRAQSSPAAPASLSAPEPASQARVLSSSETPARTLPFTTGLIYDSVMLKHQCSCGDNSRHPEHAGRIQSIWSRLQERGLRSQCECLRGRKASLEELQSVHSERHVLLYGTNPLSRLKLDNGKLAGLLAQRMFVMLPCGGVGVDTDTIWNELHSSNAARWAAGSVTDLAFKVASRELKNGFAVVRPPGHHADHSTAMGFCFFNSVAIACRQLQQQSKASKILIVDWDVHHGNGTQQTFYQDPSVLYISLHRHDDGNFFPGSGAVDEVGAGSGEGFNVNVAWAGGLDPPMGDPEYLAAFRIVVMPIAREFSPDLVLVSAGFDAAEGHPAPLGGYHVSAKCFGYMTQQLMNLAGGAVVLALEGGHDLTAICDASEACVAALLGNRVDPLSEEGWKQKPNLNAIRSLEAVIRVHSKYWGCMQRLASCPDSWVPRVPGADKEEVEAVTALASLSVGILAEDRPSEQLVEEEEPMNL
In words: HDAC isoform selectivity, HDAC7. The class given is biochemical. The following applies: HDAC subtype panel.

The next assay deals with A431 cells. As to the kind of experiment: MTT antiproliferative assay, A431. The following applies: Homo sapiens, A-431, read-out: IC50 A431. For orientation: Tetrazolium assays rely on reduction of a dye to a coloured formazan, in cell work by metabolically active cells.
A further assay concerns the target HDAC2 (Homo sapiens, UniProt Q92769). In words: HDAC isoform selectivity, HDAC2. Format: biochemical. The following applies: HDAC subtype panel.
The target of another assay is T2, HDAC11 (Homo sapiens, UniProt Q96DB2).
T2 sequence (Q96DB2 1-347): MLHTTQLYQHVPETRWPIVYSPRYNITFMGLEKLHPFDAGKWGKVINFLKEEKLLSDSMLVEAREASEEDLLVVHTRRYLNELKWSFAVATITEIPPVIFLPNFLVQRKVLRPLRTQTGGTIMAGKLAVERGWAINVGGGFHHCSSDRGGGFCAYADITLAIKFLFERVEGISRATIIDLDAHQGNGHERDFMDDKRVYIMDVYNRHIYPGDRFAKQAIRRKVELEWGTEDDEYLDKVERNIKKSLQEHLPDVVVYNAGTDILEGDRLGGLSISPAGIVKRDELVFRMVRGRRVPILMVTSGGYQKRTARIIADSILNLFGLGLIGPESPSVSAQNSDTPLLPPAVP
In words: HDAC isoform selectivity, HDAC11. Format: biochemical. The following applies: HDAC subtype panel.

The target of the next assay is T3, HDAC10 (Homo sapiens, UniProt Q969S8).
T3 sequence (Q969S8 1-669): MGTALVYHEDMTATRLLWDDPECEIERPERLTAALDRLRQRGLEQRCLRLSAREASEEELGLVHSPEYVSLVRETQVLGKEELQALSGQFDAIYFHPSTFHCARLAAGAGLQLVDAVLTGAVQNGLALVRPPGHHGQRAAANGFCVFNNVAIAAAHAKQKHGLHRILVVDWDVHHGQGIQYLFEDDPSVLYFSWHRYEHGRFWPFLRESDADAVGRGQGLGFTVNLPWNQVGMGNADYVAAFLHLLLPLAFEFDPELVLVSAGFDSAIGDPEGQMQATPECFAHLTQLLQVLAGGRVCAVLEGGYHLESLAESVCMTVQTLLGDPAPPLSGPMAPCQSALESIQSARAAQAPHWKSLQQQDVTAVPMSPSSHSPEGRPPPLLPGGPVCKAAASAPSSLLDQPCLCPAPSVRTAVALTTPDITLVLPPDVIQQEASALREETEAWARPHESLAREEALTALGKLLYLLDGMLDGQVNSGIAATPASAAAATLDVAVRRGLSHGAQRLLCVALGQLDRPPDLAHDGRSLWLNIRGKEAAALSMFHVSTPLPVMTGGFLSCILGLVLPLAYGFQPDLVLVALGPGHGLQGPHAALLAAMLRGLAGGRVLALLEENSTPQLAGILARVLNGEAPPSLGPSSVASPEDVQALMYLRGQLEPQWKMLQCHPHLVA
As to the kind of experiment: HDAC isoform selectivity, HDAC10. The following applies: HDAC subtype panel. Format: biochemical.

In a further assay the target is HDAC3 (Homo sapiens, UniProt O15379). As to the kind of experiment: HDAC isoform selectivity, HDAC3. The class given is biochemical. The following applies: HDAC subtype panel.
Sequence of HDAC3 (O15379 whole entry, canonical isoform): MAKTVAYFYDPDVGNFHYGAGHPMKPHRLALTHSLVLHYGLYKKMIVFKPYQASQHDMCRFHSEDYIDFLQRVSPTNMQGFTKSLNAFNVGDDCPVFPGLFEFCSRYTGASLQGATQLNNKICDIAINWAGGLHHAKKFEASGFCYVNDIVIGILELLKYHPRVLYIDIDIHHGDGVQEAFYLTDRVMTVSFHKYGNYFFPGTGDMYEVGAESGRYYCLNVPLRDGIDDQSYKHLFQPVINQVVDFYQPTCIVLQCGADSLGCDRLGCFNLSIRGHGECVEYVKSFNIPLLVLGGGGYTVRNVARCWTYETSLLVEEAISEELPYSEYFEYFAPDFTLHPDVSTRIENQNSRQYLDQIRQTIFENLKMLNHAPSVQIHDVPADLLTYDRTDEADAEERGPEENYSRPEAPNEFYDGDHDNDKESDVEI
Sequence of HDAC3 (Q9Y618 395-489 partner limits assumed): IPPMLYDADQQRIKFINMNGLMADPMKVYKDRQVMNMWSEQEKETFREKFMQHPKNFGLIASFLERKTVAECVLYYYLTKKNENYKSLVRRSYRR
In a further assay the test system is MDM2, p53 in MCF-7 cells. In words: Western blot, MDM2 and p53 protein level. The following applies: MCF-7, 24 h incubation. Format: cell-based, human. The protocol: The cells were collected and washed with cold PBS twice, then added the protease and phosphatase inhibitors contained lysis buffer. Total cell lysates were prepared in lysis RIPA buffer (Invitrogen, CA, USA) on ice for 30 min, followed by centrifugation at 12000 rpm for 10 min at 4°C. After collecting supernatant, protein concentration was determined by a BCA protein assay. The total proteins were loaded into the 10%-15% SDS-PAGE gel and separated by sodium dodecyl sulfate polyacrylamide gel electrophoresis (PAGE). After electrophoresis, the protein was transferred to the PVDF membranes and rinsed three times in PBST buffer for 10 min each time, then sealed with 5% BSA Buffer for 1h. The membranes were incubated at 4°C for 24 h with primary antibodies and washed with TBST three times. Then incubated at room temperature for 2 h with secondary antibodies (1:10,000). The incubated PVDF membranes were taken out and rinsed with TBST three times. The protein bands were visualized through enhanced chemiluminescence (ECL) WB substrate (Millipore, MA, USA) and analyzed by ChemiScope. The antibodies including p53, MDM2, H4, and GAPDH were purchased from Abcam (Cambridge, MA, USA).
In general terms: In western blotting, separated proteins are transferred to a membrane and probed.

Entries after “also recorded” stand apart in the source; their conditions may differ. Some results are limits rather than exact numbers.

Sequence of HDAC5 (Q9UQL6 whole entry, canonical isoform): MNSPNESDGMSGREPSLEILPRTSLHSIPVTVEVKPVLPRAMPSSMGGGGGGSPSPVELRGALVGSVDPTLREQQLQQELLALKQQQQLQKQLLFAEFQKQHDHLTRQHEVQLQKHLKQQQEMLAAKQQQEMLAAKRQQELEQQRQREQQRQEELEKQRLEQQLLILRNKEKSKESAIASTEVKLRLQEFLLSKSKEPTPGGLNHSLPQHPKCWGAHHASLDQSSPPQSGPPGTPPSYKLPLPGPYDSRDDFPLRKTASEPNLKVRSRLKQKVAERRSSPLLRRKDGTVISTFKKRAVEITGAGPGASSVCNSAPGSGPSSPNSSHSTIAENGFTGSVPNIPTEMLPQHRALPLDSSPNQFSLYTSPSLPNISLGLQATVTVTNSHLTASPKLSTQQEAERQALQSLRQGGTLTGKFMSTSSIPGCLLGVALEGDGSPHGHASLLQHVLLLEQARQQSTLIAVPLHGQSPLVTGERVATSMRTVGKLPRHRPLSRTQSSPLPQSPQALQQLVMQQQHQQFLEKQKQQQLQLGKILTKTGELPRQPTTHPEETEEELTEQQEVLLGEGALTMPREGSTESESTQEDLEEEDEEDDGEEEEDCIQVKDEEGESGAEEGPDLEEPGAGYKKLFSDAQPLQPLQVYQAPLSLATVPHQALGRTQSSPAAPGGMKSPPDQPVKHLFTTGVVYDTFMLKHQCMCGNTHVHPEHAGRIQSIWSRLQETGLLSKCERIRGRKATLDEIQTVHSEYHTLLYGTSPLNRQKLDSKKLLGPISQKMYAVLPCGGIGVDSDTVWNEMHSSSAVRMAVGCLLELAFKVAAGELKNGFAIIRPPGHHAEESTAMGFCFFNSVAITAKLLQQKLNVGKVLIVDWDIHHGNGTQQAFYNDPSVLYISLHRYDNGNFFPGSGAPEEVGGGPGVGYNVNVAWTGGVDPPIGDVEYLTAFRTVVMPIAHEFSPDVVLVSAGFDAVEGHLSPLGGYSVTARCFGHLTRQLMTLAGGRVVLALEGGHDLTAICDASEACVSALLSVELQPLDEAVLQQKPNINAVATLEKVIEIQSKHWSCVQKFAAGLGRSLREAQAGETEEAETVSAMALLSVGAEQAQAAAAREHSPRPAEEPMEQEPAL
Sequence of HDAC4 (P56524 whole entry, canonical isoform): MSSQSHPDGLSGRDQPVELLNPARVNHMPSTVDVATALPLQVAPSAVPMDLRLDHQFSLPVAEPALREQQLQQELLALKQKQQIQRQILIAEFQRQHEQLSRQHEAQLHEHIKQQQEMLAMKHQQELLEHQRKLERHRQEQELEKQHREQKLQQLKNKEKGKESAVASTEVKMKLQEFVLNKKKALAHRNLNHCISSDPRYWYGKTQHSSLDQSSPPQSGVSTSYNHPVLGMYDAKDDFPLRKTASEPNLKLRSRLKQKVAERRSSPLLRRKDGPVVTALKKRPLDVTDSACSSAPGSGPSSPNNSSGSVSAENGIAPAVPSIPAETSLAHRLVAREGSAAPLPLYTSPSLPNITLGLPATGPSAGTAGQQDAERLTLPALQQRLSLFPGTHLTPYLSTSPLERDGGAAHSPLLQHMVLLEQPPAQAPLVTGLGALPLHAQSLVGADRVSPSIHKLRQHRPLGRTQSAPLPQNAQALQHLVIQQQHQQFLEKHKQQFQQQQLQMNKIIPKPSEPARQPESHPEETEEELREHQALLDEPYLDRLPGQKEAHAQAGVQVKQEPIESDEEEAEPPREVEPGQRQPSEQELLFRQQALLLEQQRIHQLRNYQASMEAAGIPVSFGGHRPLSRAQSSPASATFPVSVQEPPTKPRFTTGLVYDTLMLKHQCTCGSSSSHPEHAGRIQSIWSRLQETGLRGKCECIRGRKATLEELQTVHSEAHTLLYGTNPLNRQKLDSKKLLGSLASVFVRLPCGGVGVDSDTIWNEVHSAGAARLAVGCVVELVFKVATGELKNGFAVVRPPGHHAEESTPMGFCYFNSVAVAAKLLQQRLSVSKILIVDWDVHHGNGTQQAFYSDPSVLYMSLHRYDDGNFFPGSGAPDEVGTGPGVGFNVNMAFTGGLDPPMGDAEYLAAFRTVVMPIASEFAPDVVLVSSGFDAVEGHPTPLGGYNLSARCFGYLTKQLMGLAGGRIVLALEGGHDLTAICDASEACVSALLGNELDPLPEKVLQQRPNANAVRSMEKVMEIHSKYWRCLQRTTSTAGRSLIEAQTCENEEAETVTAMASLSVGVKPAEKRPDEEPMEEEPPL
Sequence of HDAC9 (Q9UKV0 whole entry, canonical isoform): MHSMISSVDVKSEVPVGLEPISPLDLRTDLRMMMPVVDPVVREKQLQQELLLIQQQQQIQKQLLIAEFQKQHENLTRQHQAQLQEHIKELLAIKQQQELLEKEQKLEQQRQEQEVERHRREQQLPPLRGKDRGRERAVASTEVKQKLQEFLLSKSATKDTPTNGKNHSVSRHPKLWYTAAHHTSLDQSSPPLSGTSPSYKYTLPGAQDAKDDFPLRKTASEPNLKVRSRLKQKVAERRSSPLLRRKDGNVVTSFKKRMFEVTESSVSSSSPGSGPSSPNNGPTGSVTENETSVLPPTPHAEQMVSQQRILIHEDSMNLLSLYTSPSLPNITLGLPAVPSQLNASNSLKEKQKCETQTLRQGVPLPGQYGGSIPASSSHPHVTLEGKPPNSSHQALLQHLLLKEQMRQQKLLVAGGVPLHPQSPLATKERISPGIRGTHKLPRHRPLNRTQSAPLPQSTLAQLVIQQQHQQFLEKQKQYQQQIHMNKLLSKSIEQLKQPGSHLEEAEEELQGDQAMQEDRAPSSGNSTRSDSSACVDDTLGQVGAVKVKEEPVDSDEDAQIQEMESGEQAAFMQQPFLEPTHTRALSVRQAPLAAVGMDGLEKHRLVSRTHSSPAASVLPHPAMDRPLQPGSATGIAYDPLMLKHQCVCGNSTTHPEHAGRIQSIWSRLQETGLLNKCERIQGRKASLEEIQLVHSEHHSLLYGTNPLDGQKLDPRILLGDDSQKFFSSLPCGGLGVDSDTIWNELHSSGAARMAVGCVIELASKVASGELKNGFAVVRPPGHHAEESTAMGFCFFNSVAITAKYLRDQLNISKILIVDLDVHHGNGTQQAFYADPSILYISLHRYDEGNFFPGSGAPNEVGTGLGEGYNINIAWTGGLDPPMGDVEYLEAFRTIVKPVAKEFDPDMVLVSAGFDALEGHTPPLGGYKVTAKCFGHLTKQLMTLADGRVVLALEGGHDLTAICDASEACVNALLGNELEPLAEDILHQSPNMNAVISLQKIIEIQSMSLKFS
Sequence of HDAC2 (Q92769 whole entry, canonical isoform): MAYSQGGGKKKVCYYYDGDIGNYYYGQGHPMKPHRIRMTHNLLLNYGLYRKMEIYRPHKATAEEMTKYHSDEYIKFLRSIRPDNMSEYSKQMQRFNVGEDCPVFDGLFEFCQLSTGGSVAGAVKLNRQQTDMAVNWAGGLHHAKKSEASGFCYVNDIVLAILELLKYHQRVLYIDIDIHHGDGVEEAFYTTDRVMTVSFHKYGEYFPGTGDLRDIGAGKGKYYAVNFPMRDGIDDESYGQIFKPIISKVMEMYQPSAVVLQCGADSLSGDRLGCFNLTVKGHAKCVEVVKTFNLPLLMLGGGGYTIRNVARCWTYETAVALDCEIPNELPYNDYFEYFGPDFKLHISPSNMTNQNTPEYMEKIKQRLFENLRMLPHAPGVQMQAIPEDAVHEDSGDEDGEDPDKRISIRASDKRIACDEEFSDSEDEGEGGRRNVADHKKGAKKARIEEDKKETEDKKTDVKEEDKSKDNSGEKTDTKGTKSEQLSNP
Protocol for A431 cells: The cytotoxicity assay was performed with MTT method as previously described ([73], [88], [89]).

Consider `O=C(CCCCCCC(=O)N1CCC(C(=O)Nc2ccc([C@@H]3[C@H]4CSCN4[C@]4(C(=O)Nc5cc(Cl)ccc54)[C@H]3C(=O)c3ccccc3)cc2)CC1)NO` [compound 11b, N-(4-((3R,6'S,7'R,7a'S)-6'-benzoyl-6-chloro-2-oxo-1',6',7',7a'-tetrahydro-3'H-spiro[indoline-3,5'-pyrrolo[1,2-c]thiazol]-7'-yl)phenyl)-1-(8-(hydroxyamino)-8-oxooctanoyl)piperidine-4-carboxamide], for which the IC50 was greater than 10000 nM against HDAC5; greater than 10000 nM on HDAC4; greater than 10000 nM against HDAC9; greater than 10000 nM against HDAC7; 1890 ± 880 nM with A431 cells; 64 ± 4 nM on HDAC2. Besides, the IC50 on HDAC11 was greater than 10000 nM; on HDAC10 it was 1490 ± 37 nM; on HDAC3 it was 115 ± 9 nM. The “protein level of MDM2 and p53 (western blot)” value in the assay on MDM2, p53 in MCF-7 cells was “up-regulating the expression of p53; also recorded: increased the expression of p53; also recorded: dose-dependently increased the protein level of MDM2 as well as p53”.

As usually defined, the IC50 is the concentration that inhibits the measured activity by half.

(Values after PMC9386376, “Discovery of spirooxindole-derived small-molecule compounds as novel HDAC/MDM2 dual inhibitors and investigation of their anticancer activity” (Frontiers in Oncology, 2022).)
